Experimental data taken from patent US20050119337A1, “Methods of application of Schisandrin B in the preparation of anticancer medications” (priority 2003, published 2005).

Experiments:
[1] = test system: KBV200; assay: Cell cycle distribution and hypodiploid cells, propidium iodide flow cytometry; assay type: cell-based, human
Experimental: The test cells were also analyzed by flow cytometry after being subjected to propidium iodide staining.

[2] = test system: human leukemia MDR cell line K562/adr; assay: Reversal of drug resistance of K562/adr, MTT assay, 72 h; assay type: cell-based; conditions: K562/adr
Experimental: (§1) In this embodiment, the IC50 of anticancer drugs in the presence or absence of Schisandrin B toward MDR cells was determined.
(§2) MTT assays were carried out in triplicate against human leukemia MDR cell line K562/adr and human epidermoid carcinoma MDR cell line KBV200. MTT assays as described previously (X. Hu, et al., Chemotherapy 41:296-305 (1995)) were used to determine the cytotoxicity of each anticancer drug in the presence or absence of Schisandrin B or verapmil.
Cells were treated with specific anticancer drugs as set forth therein. “Ctrl” represents control cells treated with anticancer drugs in the absence of Schisandrin B or verapamil. “SchB” represents cells treated with anticancer drugs in the presence of Schisandrin B (10 μg/ml).

[3] = test system: KBV200-implanted tumor; assay: In vivo reversal of drug resistance, KBV200-implanted tumor; design: species or system Balb/c nude mice; conditions: for MST / T/C: Balb/c nude mice bearing KBV200-implanted tumor; for MST: doxorubicin 5 mg/kg i.v., Schisandrin B 50 mg/kg gastric intubation; for T/C: survival period in the test group / control group x 100
Experimental: Thirty nine Balb/c nu/nu female mice were inoculated subcutaneously with KBV200 cells (5×10^6 KBV200 cells/each mouse) on day 0. […] Mean body weights were recorded daily. All mice were observed once per day (or more) for mortality and signs of ill health (i.e., weight loss, change in appetite, or behavioral changes). Therapeutic comparisons were made between control and treatment groups by determining the tumor size. Tumor size was monitored approximately every other day by caliper measurements and calculated according to the formula [Tumor weight=(length×width^2)÷2]. The median survival times (MST) and the percent increase in life span (% ILS) were calculated as: % ILS=[(MSTtreatment/MSTcontrol)−1]×100.
“MST” represents median survival time. The survival rate (T/C %) was calculated by following equation: T/C(%)=[Average survival period in the test group/average survival period in the control group]×100. *P<0.05 compared to saline, vehicle, or Schisandrin B alone.

[4] = test system: KBV200 cells; assay: DNA fragmentation, agarose electrophoresis; assay type: cell-based, human; conditions: FIG. 13
Text: The DNA of above cells was also extracted and subjected to agarose electrophoresis.

[5] = test system: K562/vcr; assay: Reversal of drug resistance, MTT assay, 48 h; assay type: cell-based; conditions: for increase of sensitivity of K562/vcr to doxorubicin: FIG. 1
Experimental: To illustrate a method for reversal of drug resistance by application of Schisandrin B, cell lines K562/adr, K562/vcr (X. […] H. […] Cells were cultured in RPMI-1640 medium containing 10% fetal calf serum. […] The logarithmic growing cells were seeded into a 96 well plate (20,000 cells/well). Specific anticancer drugs (set forth in Table 1) and Schisandrin B in combination were added into the wells containing the select cell lines. […] Cell viability was assessed by MTT assays as described in X.

[6] = test system: KBV200; assay: Apoptosis induced by doxorubicin, Hoechst 33342/propidium iodide staining; assay type: cell-based, human; conditions: KBV200, A5 + S10: doxorubicin 5 μg/ml and Schisandrin B 10 μg/ml, 24 hours
Text: (§3) Cells were collected and stained with fluorescent dyes Hoechst 33342 and propidium iodide. Hoechst 33342 stains the nuclei of cells with the color blue, and propidium iodide exclusively stains dead cells with the color of red. Accordingly, while Hoechst 33342 only stained the living cells blue, the dead cells were stained by both dyes with the colors of yellow, orange or red. The percentage of dead cells was counted under fluorescent microscope.

[7] = test system: KB; assay: as above; assay type: cell-based
Text: as §3

[8] = test system: human epidermoid carcinoma MDR cell line KBV200; assay: Reversal of drug resistance of KBV200, MTT assay, 72 h; assay type: cell-based
Experimental: as §1, §2
Cells were treated with specific anticancer drugs as set forth therein. […] “SchB” represents cells treated with anticancer drugs in the presence of Schisandrin B (10 μg/ml).

[9] = target: T1, P-glycoprotein (Homo sapiens, UniProt P08183); assay: Daunorubicin accumulation, flow cytometry; assay type: cell-based; conditions: daunorubicin 2 μg/ml, Schisandrin B 10 μg/ml, FIG. 5
T1 construct: The cell line selected was MDR cancer cell K562/adr and its parental drug sensitive cell K562; endogenous in cells; host or cells: K562/adr (doxorubicin-selected human leukemia MDR cell line)
T1 sequence (P08183 whole entry): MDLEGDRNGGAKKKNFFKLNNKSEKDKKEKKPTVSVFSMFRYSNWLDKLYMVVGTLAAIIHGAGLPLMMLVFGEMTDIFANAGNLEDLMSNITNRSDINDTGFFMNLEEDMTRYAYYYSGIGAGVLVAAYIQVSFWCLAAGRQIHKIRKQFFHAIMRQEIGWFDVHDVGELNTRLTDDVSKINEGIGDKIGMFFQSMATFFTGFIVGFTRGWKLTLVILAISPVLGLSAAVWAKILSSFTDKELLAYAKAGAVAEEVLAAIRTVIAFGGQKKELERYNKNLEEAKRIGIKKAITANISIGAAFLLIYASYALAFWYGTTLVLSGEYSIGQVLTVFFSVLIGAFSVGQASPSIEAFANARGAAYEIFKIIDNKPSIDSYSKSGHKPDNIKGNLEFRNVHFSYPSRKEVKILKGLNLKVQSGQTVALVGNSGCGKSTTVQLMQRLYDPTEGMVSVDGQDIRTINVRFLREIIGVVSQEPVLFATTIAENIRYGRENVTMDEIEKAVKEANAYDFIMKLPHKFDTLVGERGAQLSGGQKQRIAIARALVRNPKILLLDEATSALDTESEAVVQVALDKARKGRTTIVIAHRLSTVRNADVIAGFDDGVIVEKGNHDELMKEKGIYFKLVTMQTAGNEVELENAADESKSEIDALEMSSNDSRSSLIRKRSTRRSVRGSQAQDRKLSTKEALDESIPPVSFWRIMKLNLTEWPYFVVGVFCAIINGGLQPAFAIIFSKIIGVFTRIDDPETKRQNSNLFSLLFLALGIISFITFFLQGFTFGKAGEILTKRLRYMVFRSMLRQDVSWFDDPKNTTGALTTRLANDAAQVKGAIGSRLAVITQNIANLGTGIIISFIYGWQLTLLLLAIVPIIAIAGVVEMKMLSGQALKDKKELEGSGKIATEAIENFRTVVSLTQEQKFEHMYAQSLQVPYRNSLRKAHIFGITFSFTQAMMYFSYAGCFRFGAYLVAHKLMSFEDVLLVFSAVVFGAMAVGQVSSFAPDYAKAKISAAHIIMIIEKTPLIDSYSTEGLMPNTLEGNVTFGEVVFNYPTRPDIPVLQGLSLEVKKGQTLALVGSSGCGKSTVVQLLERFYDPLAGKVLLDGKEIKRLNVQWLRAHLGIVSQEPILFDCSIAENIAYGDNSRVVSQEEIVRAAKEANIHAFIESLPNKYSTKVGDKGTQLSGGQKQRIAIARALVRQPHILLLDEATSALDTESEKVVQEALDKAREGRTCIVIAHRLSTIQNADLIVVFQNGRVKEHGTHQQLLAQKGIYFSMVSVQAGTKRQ
Experimental: (§4) P-glycoprotein functions as a drug pump that unilaterally pumps the anticancer drugs out of MDR cancer cells. Inhibition of P-glycoprotein results in an increase of the intracellular drug concentration within cancer cells. The inhibition of P-glycoprotein is assessed by analyzing the anticancer drug concentration within the test cells in the presence or absence of Schisandrin B. […] Cells were collected at intervals of 15, 30, 60, 90, 120, and 160 minutes after incubation.

[10] = target: T1, P-glycoprotein; assay: [3H]Azidopine photoaffinity labeling of P-glycoprotein; assay type: binding; conditions: KBV200 cytoplasmic membranes, 1.0 μM azidopine, FIG. 14
Text: To illustrate that Schisandrin B physically interacts with P-glycoprotein according to the present disclosure, [^3H]Azidopine Photoaffinity Labeling of P-glycoportein in the presence or absence of Schisandrin B was used. [^3H]Azidopine is a chemical having unique properties that enable it to interact with P-glycoprotein. If Schisandrin B is also able to interact with P-glycoprotein, the binding of P-glycoprotein with [^3H]Azidopine would be reduced in the presence of Schisandrin B.
The cytoplasmic membranes (enriched with P-glycoprotein) of MDR cell KBV200 were prepared according to the methods as described in May GL, et al., Int. J. Cancer 42:728-733(1988) and Hyafil F, et al., Cancer Res. 53:4595-4602(1993). Membranes were incubated with Schisandrin B for 40 minutes in the dark, followed by 1 hour incubation with 1.0 μM [H]azidopine. After UV irradiation for 2 minutes, the photolabeled membranes were subjected to SDS-PAGE on a 7.5% gel, followed by fluorography.

[11] = test system: K562 cells; assay: Cytotoxicity of Schisandrin B, MTT assay, 48 h; assay type: cell-based; conditions: 10 and 20 μg/ml, FIG. 2
Experimental: (§5) To illustrate the cytotoxicity of Schisandrin B according to the present disclosure, cell lines selected for use include cancer cell lines K562, K562/Adr, K562/vcr; primary cultured cells, including human peripheral blood mononuclear cells (PBMC) and human fibroblast cells; noncancer cell lines, including human bone marrow stromal cell D6p4 and human liver cell HL-7702. Cells were cultured in RPMI-1640 medium containing 10% fetal calf serum. The logarithmic growing cells were seeded into a 96 well plate (20,000 cells/well).

[12] = test system: normal human cells (PBMC, fibroblast cells, bone marrow stromal cell D6p4, liver cell HL-7702); assay: Cytotoxicity of Schisandrin B, MTT assay, 48 h; assay type: cell-based; conditions: 10 and 20 μg/ml, FIG. 2
Experimental: as §5

[13] = test system: MDR cells (K562/Adr, K562/vcr); assay: Cytotoxicity of Schisandrin B, MTT assay, 48 h; assay type: cell-based; conditions: 10 and 20 μg/ml, FIG. 2
Experimental: as §5

[14] = target: T1, P-glycoprotein; assay: Intracellular doxorubicin accumulation, flow cytometry; assay type: cell-based; conditions: doxorubicin 5 μg/ml, Schisandrin B 10 μg/ml, 60-120 minutes, FIG. 3
Experimental: The cell line selected was MDR cancer cell K562/adr and its parental drug sensitive cell K562. Cells were cultured in RPMI-1640 medium containing 10% fetal calf serum in cell-culture flasks.

[15] = test system: KBV200 cells; assay: Intracellular distribution of daunorubicin and Rh-123, fluorescent microscope; assay type: cell-based, human; conditions: KBV200, Schisandrin B 5 and 10 μg/ml, 1 hour, FIGS. 10 and 11
Experimental: To illustrate the effects of Schisandrin B on the intracellular distribution in MDR cancer cells, MDR cell KBV200 and its parental drug sensitive cell line KB were selected for use. […] The respective cultures were incubated at 37° C. for 1 hour, washed with ice-cold PBS, and the cells were observed under fluorescent microscope.

[16] = target: T1, P-glycoprotein; assay: Rh-123 accumulation, flow cytometry; assay type: cell-based; conditions: Rh-123 2 μg/ml, Schisandrin B 10 μg/ml, FIG. 6
Experimental: as §4, with “90,” for “90, 120,”, “120” for “160”, “incubation. […] At least 50,000 cells were analyzed for each sample.” for “incubation.”

[17] = test system: K562/adr; assay: Reversal of resistance to doxorubicin (FIG. 1); assay type: cell-based, human; conditions: in the presence of Schisandrin B
Experimental: To illustrate a method for reversal of drug resistance by application of Schisandrin B, cell lines K562/adr, K562/vcr (X. Hu et al., Chemotherapy 41:296-305 (1995)), and KBv200 (X. H. Zhang et al., Yao Xue Xue Bao 29:246-251 (1994)) were selected for use because these particular cell lines are characteristic of overexpression of P-glycoprotein. Cells were cultured in RPMI-1640 medium containing 10% fetal calf serum. The test compound Schisandrin B was dissolved in dimethyl sulfoxide (DMSO) (10 mg/ml as stock). The logarithmic growing cells were seeded into a 96 well plate (20,000 cells/well). Specific anticancer drugs (set forth in Table 1) and Schisandrin B in combination were added into the wells containing the select cell lines. Controls for each anticancer drug type without Schisandrin B were also seeded into the 96 well plate. […] Cell viability was assessed by MTT assays as described in X. Hu et al., Chemotherapy 41:296-305 (1995).

[18] = KBV200, A1: doxorubicin 1 μg/ml
[19] = KBV200, A5: doxorubicin 5 μg/ml
[20] = KBV200, doxorubicin 1 μg/ml and Schisandrin B 10 μg/ml
[21] = KBV200, doxorubicin 5 μg/ml and Schisandrin B 10 μg/ml

COc1cccc2c1C(=O)c1c(O)c3c(c(O)c1C2=O)C[C@@](O)(C(=O)CO)C[C@@H]3O[C@H]1C[C@H](N)[C@H](O)[C@H](C)O1 [Doxorubicin, doxorubicin]
Cell cycle distribution G0/G1 [1, 18]: 44.76% | Cell cycle distribution G2/M [1, 18]: 10.14% | Cell cycle distribution S [1, 18]: 45.09% | hypodiploid % [1, 18]: 1.21% | Cell cycle distribution G0/G1 [1, 19]: 48.03% | Cell cycle distribution G2/M [1, 19]: 9.60% | Cell cycle distribution S [1, 19]: 42.37% | hypodiploid % [1, 19]: 7.51% | Cell cycle distribution G0/G1 [1, 20]: 54.04% | Cell cycle distribution G2/M [1, 20]: 5.66% | Cell cycle distribution S [1, 20]: 40.30% | hypodiploid % [1, 20]: 24.10% | Cell cycle distribution G0/G1 [1, 21]: 58.94% | Cell cycle distribution G2/M [1, 21]: 1.70% | Cell cycle distribution S [1, 21]: 39.36% | hypodiploid % [1, 21]: 70.31% | IC50 ([2]; Homo sapiens, anticancer drug alone, 72 h, read-out: IC50 Control): 1.42 ± 0.246 µg/mL | RF (Schisandrin B) ([2]; IC50 in the absence divided by IC50 in the presence of Schisandrin B (10 μg/ml)): 20.57 | RF (verapamil) ([2]; IC50 in the absence divided by IC50 in the presence of verapamil (6 μg/ml)): 10.76 | IC50 Schisandrin B ([2]; anticancer drug in the presence of Schisandrin B (10 μg/ml)): 0.0691 ± 0.0137 µg/mL | IC50 verapamil ([2]; anticancer drug in the presence of verapamil (6 μg/ml)): 0.1324 ± 0.0086 µg/mL | tumor sizes versus control groups ([3]; Balb/c nu/nu mice, KBV200 s.c., doxorubicin 5 mg/kg via tail vein, Schisandrin B via gastric intubation, days 11, 14, 18, 21, 25, FIG. 15): not significantly different | MST [3]: not significantly prolonged | T/C [3]: 111.1% | DNA fragmentation ([4]; KBV200, doxorubicin combined with Schisandrin B (10 μg/ml)): demonstrated DNA fragmentation | DNA fragmentation ([4]; KBV200, doxorubicin in the absence of Schisandrin B): did not show the similar DNA fragmentation | IC50 ([5]; Homo sapiens, anticancer drug toward K562/vcr in the absence of Schisandrin B, 48 h, read-out: IC50 Control): 4.89 ± 0.21 µg/mL | RF (Reversal Folds) ([5]; IC50 in the absence of Schisandrin B divided by IC50 in the presence of Schisandrin B (10 μg/ml)): 25.7 | IC50 Schisandrin B ([5]; anticancer drug toward K562/vcr in the presence of Schisandrin B (10 μg/ml), 48 h): 0.19 ± 0.01 µg/mL | % apoptosis [6]: >90% | % apoptosis ([7]; A1: doxorubicin 1 μg/ml): >90% | % apoptosis ([7]; A5: doxorubicin 5 μg/ml): >90% | IC50 ([8]; Homo sapiens, anticancer drug alone, KBV200, 72 h, read-out: IC50 Control): 0.327 ± 0.213 µg/mL | RF (verapamil) ([8]; IC50 in the absence / IC50 in the presence of verapamil (6 μg/ml), KBV200): 10.11 | IC50 Schisandrin B ([8]; anticancer drug in the presence of Schisandrin B (10 μg/ml), KBV200): 0.0691 ± 0.0137 µg/mL | IC50 verapamil ([8]; anticancer drug in the presence of verapamil (6 μg/ml), KBV200): 0.0324 ± 0.0086 µg/mL

COc1cc2c(c(OC)c1OC)-c1c(cc3c(c1OC)OCO3)C[C@@H](C)[C@@H](C)C2 [Schisandrin B]
intracellular daunorubicin accumulation in K562/adr [9]: restored intracellular daunorubicin accumulation | MST [3]: 21.2 days | T/C [3]: 101.9% | [3H]Azidopine binding with P-glycoprotein [10]: inhibited | increase of sensitivity of K562/vcr to doxorubicin ([5]; Schisandrin B 1 μg/ml): about 5 folds | increase of sensitivity of K562/vcr to doxorubicin ([5]; Schisandrin B 10 μg/ml): ~12 folds | increase of sensitivity of K562/vcr to doxorubicin ([5]; Schisandrin B 20 μg/ml): ~18 folds | cytotoxicity toward K562 cells [11]: does demonstrate cytotoxicity | cytotoxicity toward normal human cells [12]: does not demonstrate cytotoxicity | cytotoxicity toward MDR cells [13]: does not demonstrate cytotoxicity | intracellular doxorubicin accumulation in K562/adr [14]: restored intracellular doxorubicin accumulation | intracellular distribution of daunorubicin and Rh-123 in MDR cancer cells [15]: partially restored | intracellular Rh-123 accumulation in KBV200 [16]: restored intracellular Rh-123 accumulation | sensitivity of K562/adr to doxorubicin [17]: greatly increased the sensitivity | potency in reversing vincristine resistance of KBV200 relative to verapamil ([8]; Schisandrin B versus verapamil): about 5 folds
